Here are results for 3 compounds from patent US9833455B2, “Preparation and methods of use for ortho-aryl 5-membered heteroaryl-carboxamide containing multi-targeted kinase inhibitors” (Spacefill Enterprises LLC, priority 2011, dated 2017).

Like-named read-outs stand apart in the source and are kept apart here.

For assay [1], the target named is T1, PI3K-δ (Homo sapiens, UniProt O00329).
T1 construct: purchased Reaction Biology Inc (contract assay)
Description: Reaction Biology P33 radiolabeled kinase assay, IC50 and time dependence. To be noted: for IC50: ATP 10 uM, read-out: Compound IC50* PI3K-δ. It counts as biochemical. The protocol:
(§1) “Inhibiting kinase activity” means to decrease the production of an phosphor-peptide by a particular kinase that can be separated by analytical techniques. For example, a comprehensive platform of kinase, protease, phosphatase and epigenetic assays that utilizes cutting-edge microfluidics and informatics tools to provide accurate and rapid results. Profiling data in this application were determined using these techniques at Nanosyn Inc. IC50 data were provided by Reaction Biology Inc using a P33 radiolabeled kinase assay.
(§2) The observation of potency and isoform selectivity with time-dependency for PI3K-γ appears to be unprecedented in the literature. In addition, these activities combined with inhibition of p38-α, Raf-1, DDR and CSF-1R, would be complimentary and potentially synergistic activities for both the treatment of certain inflammation based conditions and cancers.

The target of assay [2] is T2, BRAF (Homo sapiens, UniProt P15056).
T2 construct: literature Ambit Biosciences
The assay is described as above. It counts as biochemical. To be noted: for IC50: ATP 10 uM, read-out: Compound IC50* BRAF. The protocol: as §1, §2

For assay [3], the target named is PI3K-α (Homo sapiens, UniProt P42336). The assay is described as above. Format: biochemical. Conditions: for IC50: ATP 10 uM, read-out: Compound IC50* PI3K-α. The protocol: as §1, §2
The target of assay [4] is T3, PI3K-γ (Homo sapiens, UniProt P48736).
T3 construct: purchased Reaction Biology Inc (contract assay)
The description is as above. To be noted: for IC50: ATP 10 uM, read-out: Compound IC50* PI3K-γ. It counts as biochemical. The procedure: as §1, §2

Assay [5] has as its target T4, DDR2 (Homo sapiens, UniProt Q16832).
T4 sequence (Q16832 22-855): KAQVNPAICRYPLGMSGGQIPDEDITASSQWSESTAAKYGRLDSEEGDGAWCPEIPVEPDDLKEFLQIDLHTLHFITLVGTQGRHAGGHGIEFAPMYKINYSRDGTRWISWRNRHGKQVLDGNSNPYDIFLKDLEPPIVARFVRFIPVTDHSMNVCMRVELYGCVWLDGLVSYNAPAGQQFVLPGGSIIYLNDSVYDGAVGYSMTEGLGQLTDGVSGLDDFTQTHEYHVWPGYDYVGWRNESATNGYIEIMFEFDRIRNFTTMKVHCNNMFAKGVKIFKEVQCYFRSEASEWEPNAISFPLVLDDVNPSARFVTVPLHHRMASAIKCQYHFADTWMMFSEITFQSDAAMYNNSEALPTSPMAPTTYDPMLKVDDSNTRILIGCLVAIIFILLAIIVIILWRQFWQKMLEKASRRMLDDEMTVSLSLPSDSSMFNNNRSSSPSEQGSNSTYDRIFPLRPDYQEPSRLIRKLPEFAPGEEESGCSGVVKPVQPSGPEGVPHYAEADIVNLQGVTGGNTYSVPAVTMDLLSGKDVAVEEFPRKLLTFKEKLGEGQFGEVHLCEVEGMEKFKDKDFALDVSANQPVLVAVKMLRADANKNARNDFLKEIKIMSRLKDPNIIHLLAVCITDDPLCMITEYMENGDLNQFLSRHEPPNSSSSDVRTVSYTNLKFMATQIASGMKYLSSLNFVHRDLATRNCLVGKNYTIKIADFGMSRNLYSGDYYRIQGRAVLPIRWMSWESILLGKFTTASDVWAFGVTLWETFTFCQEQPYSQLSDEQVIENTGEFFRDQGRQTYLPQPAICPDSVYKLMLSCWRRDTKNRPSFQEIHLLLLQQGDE
Described as above. It counts as biochemical. Conditions: for IC50: ATP 10 uM, read-out: Compound IC50* DDR2. The procedure: as §1, §2

Assay [6] has as its target T5, CSF1R (Homo sapiens, UniProt P07333).
T5 construct: literature Ambit Biosciences
Conditions: 1 μM, duplicate, without preincubation; cited from earlier work.

For assay [7], the target named is P38-α (Homo sapiens, UniProt Q16539). Description: Nanosyn kinase profiling, % inhibition. It counts as biochemical. To be noted: panel of 230 kinases. The protocol:
as §1
(§3) A total of 15 new inhibitors were designed, prepared, and evaluated against a panel of 29 selected kinases in order to explore the applicability, SAR trends, and the tunability of this scaffold that could be imposed but this unique geometry, Table 21. Inhibitors I-1 to 1-12 all retained the 2-CF3-5-(4-F-phenyl) imidazole-4-carboxamide scaffold previously described (Deitrich, 2010), but explored different Hinge-Gatekeeper Motifs (HGM).
(§4) More modest activity for Aurora-A, FLT-1/4, KDR, KIT, PDGFRs was accompanied by better activity for B-Raf mutant and wild-type forms, Modest inhibition of MEK-1, BTK, c-Met, RET, and RON was also observed. […] Moreover, the observed inhibition of MEK-1 with 1-12 and TYK2 with I-6 represents additional activities against kinases for which no type-II inhibitors have been reported to date. […] To further evaluate the scope of inhibition, I-6 was evaluated against a larger panel of 230 kinases, Table-22.

Assay [8] addresses RON (Homo sapiens, UniProt Q04912). As to the kind of experiment: Nanosyn kinase profiling, % inhibition. To be noted: panel of 230 kinases. Format: biochemical. The procedure: as §1, §3, §4
Assay [9] concerns the target FLT1 (Homo sapiens, UniProt P17948). Description: Nanosyn kinase profiling, % inhibition. To be noted: panel of 230 kinases. It counts as biochemical. The procedure:
as §1, §3, §4

Assay [10] concerns the target TYK2 (Homo sapiens, UniProt P29597). As to the kind of experiment: Nanosyn kinase profiling, % inhibition. Format: biochemical. Conditions: panel of 230 kinases. The protocol: as §1, §3, §4
Assay [11] has as its target EPHA2 (Homo sapiens, UniProt P29317). As to the kind of experiment: Nanosyn kinase profiling, % inhibition. It counts as biochemical. Conditions: panel of 230 kinases. The protocol: as §1, §3, §4
Assay [12] concerns the target T2, BRAF. As to the kind of experiment: Nanosyn kinase profiling, % inhibition. Format: biochemical. To be noted: panel of 230 kinases. The protocol:
as §1, §3, §4

The target in assay [13] is FMS (Homo sapiens, UniProt P07333). As to the kind of experiment: Nanosyn kinase profiling, % inhibition. It counts as biochemical. To be noted: panel of 230 kinases. The protocol:
as §1, §3, §4

For assay [14], the target named is RET (Homo sapiens, UniProt P07949). Description: Nanosyn kinase profiling, % inhibition. To be noted: panel of 230 kinases. It counts as biochemical. The protocol:
as §1, §3, §4

In assay [15] the target is PDGFR-β (Homo sapiens, UniProt P09619). As to the kind of experiment: Nanosyn kinase profiling, % inhibition. Format: biochemical. To be noted: panel of 230 kinases. The procedure: as §1, §3, §4
Assay [16] concerns the target CRAF (Homo sapiens, UniProt P04049). As to the kind of experiment: Nanosyn kinase profiling, % inhibition. Format: biochemical. To be noted: panel of 230 kinases. The procedure: as §1, §3, §4
The target in assay [17] is FLT4 (Homo sapiens, UniProt P35916). As to the kind of experiment: Nanosyn kinase profiling, % inhibition. Format: biochemical. To be noted: panel of 230 kinases. The procedure:
as §1, §3, §4

Assay [18] addresses PDGFR-α (Homo sapiens, UniProt P16234). Description: Nanosyn kinase profiling, % inhibition. It counts as biochemical. Conditions: panel of 230 kinases. The protocol: as §1, §3, §4
The target of assay [19] is T4, DDR2. As to the kind of experiment: Nanosyn kinase profiling, % inhibition. Conditions: panel of 230 kinases. It counts as biochemical. The procedure: as §1, §3, §4
Assay [20] concerns the target KIT (Homo sapiens, UniProt P10721). As to the kind of experiment: Nanosyn kinase profiling, % inhibition. Format: biochemical. Conditions: panel of 230 kinases. The protocol: as §1, §3, §4

T2 sequence (P15056 whole entry): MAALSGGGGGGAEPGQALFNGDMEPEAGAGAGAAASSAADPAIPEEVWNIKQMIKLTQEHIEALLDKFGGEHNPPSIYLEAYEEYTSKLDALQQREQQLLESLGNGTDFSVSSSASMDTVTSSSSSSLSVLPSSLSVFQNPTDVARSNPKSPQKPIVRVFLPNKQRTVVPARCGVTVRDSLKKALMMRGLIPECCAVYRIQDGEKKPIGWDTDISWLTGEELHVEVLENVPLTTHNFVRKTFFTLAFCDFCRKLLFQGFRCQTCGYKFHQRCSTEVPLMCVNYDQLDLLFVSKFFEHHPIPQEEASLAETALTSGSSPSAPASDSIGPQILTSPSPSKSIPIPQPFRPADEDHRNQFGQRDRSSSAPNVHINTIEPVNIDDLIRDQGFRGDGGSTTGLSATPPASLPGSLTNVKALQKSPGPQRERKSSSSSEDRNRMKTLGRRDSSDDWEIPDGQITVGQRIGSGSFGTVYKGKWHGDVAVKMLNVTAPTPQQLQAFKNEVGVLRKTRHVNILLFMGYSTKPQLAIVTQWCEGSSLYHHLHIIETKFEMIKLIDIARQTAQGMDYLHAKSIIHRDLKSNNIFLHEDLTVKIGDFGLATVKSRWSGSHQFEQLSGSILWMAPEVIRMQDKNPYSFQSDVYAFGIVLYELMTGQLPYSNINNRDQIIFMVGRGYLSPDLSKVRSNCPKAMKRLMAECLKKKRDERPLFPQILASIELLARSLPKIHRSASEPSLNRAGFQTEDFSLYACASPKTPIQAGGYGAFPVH
Chain of PI3K-α (P42336 whole entry): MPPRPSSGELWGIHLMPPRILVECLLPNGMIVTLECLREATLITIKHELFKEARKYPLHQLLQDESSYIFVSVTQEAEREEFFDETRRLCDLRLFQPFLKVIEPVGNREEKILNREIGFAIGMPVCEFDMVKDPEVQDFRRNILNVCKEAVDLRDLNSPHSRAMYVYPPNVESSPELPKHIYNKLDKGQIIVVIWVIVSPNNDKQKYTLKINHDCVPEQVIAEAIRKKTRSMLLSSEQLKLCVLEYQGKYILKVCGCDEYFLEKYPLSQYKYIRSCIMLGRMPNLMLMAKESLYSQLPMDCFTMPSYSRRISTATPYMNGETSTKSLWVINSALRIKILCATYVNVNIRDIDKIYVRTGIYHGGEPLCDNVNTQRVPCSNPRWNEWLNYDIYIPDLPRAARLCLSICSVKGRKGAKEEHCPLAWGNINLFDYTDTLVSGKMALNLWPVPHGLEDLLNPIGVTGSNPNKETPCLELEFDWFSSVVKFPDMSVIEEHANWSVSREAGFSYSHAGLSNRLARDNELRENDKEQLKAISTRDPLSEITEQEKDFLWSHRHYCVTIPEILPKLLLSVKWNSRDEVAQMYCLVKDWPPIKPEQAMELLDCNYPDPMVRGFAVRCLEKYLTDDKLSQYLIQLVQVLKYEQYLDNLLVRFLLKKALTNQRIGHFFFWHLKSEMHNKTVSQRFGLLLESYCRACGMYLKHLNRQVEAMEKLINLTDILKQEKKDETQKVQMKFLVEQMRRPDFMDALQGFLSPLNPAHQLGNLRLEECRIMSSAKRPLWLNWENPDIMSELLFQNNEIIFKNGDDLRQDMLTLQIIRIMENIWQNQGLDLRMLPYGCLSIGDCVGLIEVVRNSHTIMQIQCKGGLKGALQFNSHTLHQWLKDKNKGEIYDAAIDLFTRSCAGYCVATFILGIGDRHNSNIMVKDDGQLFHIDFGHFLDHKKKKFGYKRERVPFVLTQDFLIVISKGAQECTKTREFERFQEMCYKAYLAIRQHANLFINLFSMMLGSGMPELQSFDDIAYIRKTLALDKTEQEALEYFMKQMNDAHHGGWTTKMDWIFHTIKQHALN
Chain of PI3K-α (P27986 whole entry partner): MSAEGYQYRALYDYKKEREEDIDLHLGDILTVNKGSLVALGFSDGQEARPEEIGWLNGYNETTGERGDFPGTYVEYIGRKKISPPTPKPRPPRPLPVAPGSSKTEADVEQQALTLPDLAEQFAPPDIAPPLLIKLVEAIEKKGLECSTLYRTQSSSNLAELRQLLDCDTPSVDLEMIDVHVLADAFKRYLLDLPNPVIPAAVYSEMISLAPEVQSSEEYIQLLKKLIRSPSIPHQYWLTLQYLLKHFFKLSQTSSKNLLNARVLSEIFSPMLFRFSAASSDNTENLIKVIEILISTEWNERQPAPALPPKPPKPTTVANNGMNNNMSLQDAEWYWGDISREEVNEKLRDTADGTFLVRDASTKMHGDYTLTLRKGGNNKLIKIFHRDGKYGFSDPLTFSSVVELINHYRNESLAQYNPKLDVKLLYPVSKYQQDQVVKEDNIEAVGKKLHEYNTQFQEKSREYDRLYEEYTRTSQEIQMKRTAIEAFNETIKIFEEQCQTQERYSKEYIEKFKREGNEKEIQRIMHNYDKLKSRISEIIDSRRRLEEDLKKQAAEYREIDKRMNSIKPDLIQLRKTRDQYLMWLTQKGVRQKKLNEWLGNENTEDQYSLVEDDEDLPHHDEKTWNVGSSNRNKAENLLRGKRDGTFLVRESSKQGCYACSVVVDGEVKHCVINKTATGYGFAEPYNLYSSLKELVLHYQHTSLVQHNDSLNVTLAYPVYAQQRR
T3 sequence (P48736 whole entry): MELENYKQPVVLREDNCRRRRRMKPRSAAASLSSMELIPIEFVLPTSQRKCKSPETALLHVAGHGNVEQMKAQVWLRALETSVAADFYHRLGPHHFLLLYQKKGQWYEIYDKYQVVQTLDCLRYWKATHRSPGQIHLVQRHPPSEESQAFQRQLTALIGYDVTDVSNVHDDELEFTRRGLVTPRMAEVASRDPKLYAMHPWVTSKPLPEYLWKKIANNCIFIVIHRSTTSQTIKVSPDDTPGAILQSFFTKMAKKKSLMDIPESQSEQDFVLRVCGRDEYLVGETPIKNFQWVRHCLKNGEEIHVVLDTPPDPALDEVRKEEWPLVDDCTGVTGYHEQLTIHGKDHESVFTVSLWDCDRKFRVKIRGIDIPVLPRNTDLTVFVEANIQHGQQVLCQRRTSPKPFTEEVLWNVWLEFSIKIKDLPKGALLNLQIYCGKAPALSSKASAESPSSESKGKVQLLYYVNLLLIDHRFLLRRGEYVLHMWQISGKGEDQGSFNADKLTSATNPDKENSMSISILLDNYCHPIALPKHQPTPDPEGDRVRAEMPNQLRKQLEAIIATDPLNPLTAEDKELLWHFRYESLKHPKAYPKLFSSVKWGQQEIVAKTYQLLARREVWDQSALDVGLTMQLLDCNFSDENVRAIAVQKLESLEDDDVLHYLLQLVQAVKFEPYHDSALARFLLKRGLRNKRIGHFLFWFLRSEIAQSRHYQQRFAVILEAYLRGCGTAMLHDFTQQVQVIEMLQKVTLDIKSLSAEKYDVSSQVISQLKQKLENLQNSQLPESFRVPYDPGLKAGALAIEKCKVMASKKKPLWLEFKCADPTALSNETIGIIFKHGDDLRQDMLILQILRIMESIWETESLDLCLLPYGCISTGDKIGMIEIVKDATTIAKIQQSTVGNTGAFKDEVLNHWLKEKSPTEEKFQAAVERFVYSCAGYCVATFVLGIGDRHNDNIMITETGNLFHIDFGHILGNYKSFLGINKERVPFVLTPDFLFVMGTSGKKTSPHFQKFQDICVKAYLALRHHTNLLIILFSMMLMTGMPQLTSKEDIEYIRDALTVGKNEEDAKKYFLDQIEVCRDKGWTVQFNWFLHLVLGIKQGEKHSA
T1 sequence (O00329 whole entry): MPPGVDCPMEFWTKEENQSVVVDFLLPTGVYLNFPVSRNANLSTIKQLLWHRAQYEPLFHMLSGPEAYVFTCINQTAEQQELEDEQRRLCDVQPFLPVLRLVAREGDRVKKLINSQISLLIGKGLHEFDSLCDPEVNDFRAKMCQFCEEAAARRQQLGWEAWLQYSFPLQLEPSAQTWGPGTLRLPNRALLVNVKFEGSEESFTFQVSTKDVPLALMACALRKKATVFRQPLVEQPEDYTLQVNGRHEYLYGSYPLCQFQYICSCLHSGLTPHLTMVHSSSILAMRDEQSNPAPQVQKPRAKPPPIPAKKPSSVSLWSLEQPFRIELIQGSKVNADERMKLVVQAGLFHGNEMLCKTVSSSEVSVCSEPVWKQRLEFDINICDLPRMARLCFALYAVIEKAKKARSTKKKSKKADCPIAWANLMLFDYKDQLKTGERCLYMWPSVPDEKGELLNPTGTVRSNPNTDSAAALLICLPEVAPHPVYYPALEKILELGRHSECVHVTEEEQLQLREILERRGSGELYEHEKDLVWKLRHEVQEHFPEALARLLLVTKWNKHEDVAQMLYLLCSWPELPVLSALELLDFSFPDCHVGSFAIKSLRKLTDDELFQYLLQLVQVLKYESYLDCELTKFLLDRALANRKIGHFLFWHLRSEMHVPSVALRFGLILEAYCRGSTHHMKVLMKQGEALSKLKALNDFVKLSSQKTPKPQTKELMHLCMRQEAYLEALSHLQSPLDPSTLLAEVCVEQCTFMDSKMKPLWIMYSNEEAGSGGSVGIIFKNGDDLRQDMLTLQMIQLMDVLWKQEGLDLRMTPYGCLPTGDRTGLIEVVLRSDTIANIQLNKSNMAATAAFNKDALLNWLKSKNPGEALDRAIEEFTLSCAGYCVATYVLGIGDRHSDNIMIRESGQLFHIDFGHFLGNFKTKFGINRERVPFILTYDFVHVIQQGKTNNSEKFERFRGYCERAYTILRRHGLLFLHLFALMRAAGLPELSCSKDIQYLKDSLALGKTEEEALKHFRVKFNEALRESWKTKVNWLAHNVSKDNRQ
T1 sequence (P27986 whole entry partner): as the sequence (P27986 whole entry partner) above

On to `Cc1ccc(NC(=O)c2nc(S(C)(=O)=O)[nH]c2-c2ccc(F)cc2)cc1Nc1nccc(-c2cccnc2)n1` [Inhibitor I-14, 3-(4-(pyridin-3-yl)-pyrimidinyl-2-yl)amino-4-methyl-analine, 5-(4-Fluorophenyl)-2-(methylsulfonyl)-1H-imidazole-4-carboxamide], for which the “Time Dependence Observed? PI3K-δ” value in assay [1] (15 vs 60 Min preincubation) was “Yes”. Moreover, the IC50 (as a rule, the midpoint of a concentration-inhibition curve) in assay [1] (preincubation 15 Min) is 3180 nM; in assay [1] (preincubation 60 Min) it was 1120 nM; in assay [2] (preincubation 15 Min), 388 nM; in [2] (preincubation 60 Min) it was 323 nM; in assay [3] (preincubation 15 Min), 899 nM; in assay [3] (preincubation 60 Min), 387 nM. Moreover, the IC50 was determined as 127 nM in assay [4] (preincubation 15 Min), 57.8 nM in assay [4] (preincubation 60 Min), 222 nM in [5] (preincubation 15 Min) and 221 nM in [5] (preincubation 60 Min). Moreover, in [2] (15 vs 60 Min preincubation), the “Time Dependence Observed? BRAF” value is “Yes”. For the same compound, the “Time Dependence Observed? PI3K-α” value in [3] (15 vs 60 Min preincubation) is “Yes”. For the same compound, the “Time Dependence Observed? PI3K-γ” value in assay [4] (15 vs 60 Min preincubation) is “Yes”. In addition, the “Time Dependence Observed? DDR2” value in assay [5] (15 vs 60 Min preincubation) is on record as “No”.
Consider `Cc1ccc(NC(=O)c2[nH]c(C(F)(F)F)nc2-c2ccc(F)cc2)cc1Nc1ccc2ncn(C)c(=O)c2c1` [KIN-035], for which the “inhibition of CSF1R” value in assay [6] is on record as “XXX (XXX > 75% @ 1 μM)”.
Regarding `CNC(=O)c1cc(Oc2ccc(NC(=O)c3nc(C(F)(F)F)[nH]c3-c3ccc(F)cc3)cc2)ccn1` [Inhibitor I-6, 4-(4-{[5-(4-Fluoro-phenyl)-2-trifluoromethyl-3H-imidazole-4-carbonyl]-amino}-phenoxy)-pyridine-2-carboxylic acid methylamide], the inhibition at 5 µM in assay [7], in assay [8], in assay [9], in assay [10], in assay [11] and in assay [12] was at least 50% each time. Moreover, the inhibition at 5 µM in assay [13], in assay [14], in [15], in [16], in [17] and in assay [18] was at least 50% throughout. Further, the inhibition at 5 µM in assay [19] and in assay [20] was at least 50% each time.
